In general, inhibition refers to how much of the control response was suppressed. What is called IC50 is the concentration at which inhibition is half-maximal.

In patent publication US20020082254A1, “Compounds for treating disorders where a decreased level of plasma FFA is desired” (priority 2000, published 2002) one finds inhibition and IC50 data, which are given here for 23 molecules.

The structures appear in SMILES notation. Read-outs that look alike come from different tables or passages of the source.

One test concerns the target T1, Lipoprotein lipase (LPL) (Bos taurus, UniProt P11151).
T1 construct: Dr. Gunilla Olivecrona, Umea University (gift)
T1 sequence (P11151 29-478): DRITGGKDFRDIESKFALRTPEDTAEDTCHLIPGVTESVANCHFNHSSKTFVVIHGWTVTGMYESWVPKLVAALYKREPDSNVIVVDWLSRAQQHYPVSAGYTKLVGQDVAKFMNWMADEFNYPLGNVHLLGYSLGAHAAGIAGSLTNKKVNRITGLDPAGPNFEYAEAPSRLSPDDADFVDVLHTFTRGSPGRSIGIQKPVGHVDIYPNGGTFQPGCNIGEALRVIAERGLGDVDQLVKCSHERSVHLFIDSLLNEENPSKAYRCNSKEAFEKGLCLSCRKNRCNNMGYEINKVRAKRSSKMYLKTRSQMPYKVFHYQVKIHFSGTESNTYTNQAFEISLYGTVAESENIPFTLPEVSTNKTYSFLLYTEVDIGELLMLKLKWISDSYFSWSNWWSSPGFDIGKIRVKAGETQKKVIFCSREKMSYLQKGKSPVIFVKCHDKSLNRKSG
As to the kind of experiment: Lipoprotein lipase (LPL) inhibition assay, 3H-triolein/intralipid substrate. It is filed as biochemical. The following applies: read-out: LPL inhibition (% inh. at 50 μM). From the text: Lipoprotein Lipase (LPL) [Classified as EC 3.1.1.34 in accordance with the Recommendations of the Nomenclature Committee of the International Union of Biochemistry and Molecular Biology (available on the World Wide Web at the following address: http://www.chem.qmw.ac.uk/iubmb/enzyme/)]
Materials. The lipoprotein lipase employed was obtained from Dr. Gunilla Olivecrona of Umea University, Sweden. ^3H-triolein (TO) from Amersham, Buckinghamshire, U.K., cat No. TRA191; 5-20 Ci/mmol dissolved in toluene. Intralipid is from Kabi-Fresenius). Apo CII was obtained from PMSF-treated plasma from overnight fasted rats. All other reagents are of commercial grade and obtained from various commercial sources.
Methods. The preparation of the substrate is as follows:
25 μl of ^3H-Triolein evaporated under a gentle stream of N2 in a 27° C. room in 4 ml chromacol glass followed by the addition of 1 ml 10% intralipid. This is mixed and sonicated on ice for 5 minutes (50% pulse mode). This can be kept for 1 week at 4° C.
100 μl assay medium (0.3M Tris-Cl, 0.2M NaCl, 0.2 mg heparin/ml and 120 mg BSA/ml (fraction V, Sigma no. 3401, pH 8.5))
All mixed in a 13×100 mm glass tube and incubated for at least 5 minutes.
2. Add 5 μl LPL (of a solution containing 500 mU/mg)
Mix and incubate for 30 minutes at 25° C.
3. The reaction is stopped with 3.25 ml of a solution containing Methanol:chloroform:heptan 10:9:7. Add 1.05 ml buffer (100 mM Boric acid, 100 mM potassium carbonate pH 10.5) and mix 10 seconds per vial.
5. Take 1 ml of the upper phase+10 ml scintillation fluid and mix
6. Scintillation count for 5 minutes per vial.

Test [1] concerns the target T2, Hormone-sensitive lipase (HSL) (Homo sapiens, UniProt Q05469).
T2 sequence (Q05469 1-1076): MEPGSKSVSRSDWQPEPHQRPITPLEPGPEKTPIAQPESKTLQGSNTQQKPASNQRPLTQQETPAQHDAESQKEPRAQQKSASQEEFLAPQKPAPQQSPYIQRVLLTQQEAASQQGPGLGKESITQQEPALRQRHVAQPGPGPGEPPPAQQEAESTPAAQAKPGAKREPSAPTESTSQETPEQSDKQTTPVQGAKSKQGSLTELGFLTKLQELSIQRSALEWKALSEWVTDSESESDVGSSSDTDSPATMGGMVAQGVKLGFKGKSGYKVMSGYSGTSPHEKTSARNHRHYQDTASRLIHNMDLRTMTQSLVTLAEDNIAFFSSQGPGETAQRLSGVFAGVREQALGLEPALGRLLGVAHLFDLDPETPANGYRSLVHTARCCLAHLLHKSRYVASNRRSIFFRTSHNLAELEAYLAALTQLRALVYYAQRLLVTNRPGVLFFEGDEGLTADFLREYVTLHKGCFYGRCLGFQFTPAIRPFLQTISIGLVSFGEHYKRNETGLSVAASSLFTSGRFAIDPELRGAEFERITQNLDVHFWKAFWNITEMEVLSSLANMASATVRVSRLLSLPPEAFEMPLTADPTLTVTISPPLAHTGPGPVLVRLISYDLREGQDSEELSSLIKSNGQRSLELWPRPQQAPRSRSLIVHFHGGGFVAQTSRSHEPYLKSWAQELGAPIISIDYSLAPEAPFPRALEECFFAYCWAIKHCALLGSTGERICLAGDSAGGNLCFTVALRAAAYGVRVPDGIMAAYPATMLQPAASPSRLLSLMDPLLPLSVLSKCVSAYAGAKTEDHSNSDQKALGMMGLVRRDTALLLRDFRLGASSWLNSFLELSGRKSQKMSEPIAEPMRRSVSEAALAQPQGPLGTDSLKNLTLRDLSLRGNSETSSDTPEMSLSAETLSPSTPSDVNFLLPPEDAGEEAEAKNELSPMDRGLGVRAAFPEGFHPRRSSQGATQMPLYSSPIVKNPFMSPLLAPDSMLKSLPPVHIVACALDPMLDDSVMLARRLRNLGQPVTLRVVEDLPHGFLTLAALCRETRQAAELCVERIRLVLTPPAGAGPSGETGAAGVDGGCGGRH
As to the kind of experiment: Hormone-sensitive lipase (HSL) inhibition assay, 3H-labeled triolein or MOME substrate. It is filed as biochemical. From the text:
Hormone-sensitive lipase (HSL) [classified as a triacylglycerol lipase, EC 3.1.1.3, in accordance with the Recommendations of the Nomenclature Committee of the International Union of Biochemistry and Molecular Biology (available on the World Wide Web at the following address: http://www.chem.qmw.ac.uk/iubmb/enzyme/)]
Materials. The Hormone-sensitive lipase employed was provided by Dr. Cecilia Holm of Lund University, Sweden, or produced and purified by Novo Nordisk (NN) using the reagents and protocols employed by Dr. Holm. The substrates used are: ^3H-labeled triolein (TO) from Amersham, Buckinghamshire, U.K. cat No. TRA191; 5-20 Ci/mmol dissolved in toluene, triolein (Sigma, Cat. No. T-1740) and mono-oleoyl-2-O-mono-oleylglycerol (MOME) synthesized at (NN) using the protocols provided by Dr. Cecilia Holm, Lund University, Sweden. Phosphatidyl choline (PC) and phosphatidyl inositol (PI) are from Sigma (St Luis Mo., cat. Nos. P-3556 and P-5954, respectively). All other reagents are of commercial grade and obtained from various commercial sources.
Methods. The preparation of the substrates is as follows:
TO: 30 μl PC:PI (20 mg/ml solution of PC:PI 3:1 prepared in chloroform)+128 μl cold TO+15 μl ^3H-TO
MOME: 30 μl PC:PI+100 μl cold MOME+200 μl ^3H-MOME
They are then evaporated under a gentle stream of N2 followed by 20-30 minutes in a Speedvac™ apparatus to ensure the absence of residual solvent.
The samples are prepared as follows:
Samples/controls: 78 μl PED-BSA+20 μl inhibitor (various concentrations)+2 μl HSL (undiluted 0.12 mg/ml). If no inhibitors are being tested, the reaction contains 98 μl PED-BSA+2 μl HSL.
The samples are put on ice and then sonicated as follows:
With TO as substrate, add 2 ml potassium buffer (0.1M potassium phosphate, pH 7) and then sonicate twice for 1 minute, with a 1-minute interval between cycles. Add an additional 1 ml potassium buffer and sonicate 4 times for 30 seconds, with a 30 second interval in between cycles. To finish, add 1 ml BSA 20%-in potassium buffer, mix by inversion and store on ice until use.
With MOME as substrate: add 2 ml potassium buffer and then sonicate twice for 1 minute, with a 1 minute interval between cycles. Add 1.6 ml potassium buffer and sonicate 4 times for 30 seconds, with a 30-second interval between cycles. To finish, add 0.4 ml BSA 20%-buffer, mix by inversion and store on ice until use.
The enzyme reaction is run at 37° C. The substrate mix is added to the various reactions at 10 second intervals, incubated for 30 minutes in a water bath and then stopped with 3.25 ml of a solution containing CH3OH:CHCl3:heptane (10:9:7). After the addition of 1.05 ml potassium buffer pH10.5, the sample is vortexed thoroughly and centrifuged for 20 min at 2000 r.p.m. One ml of the upper phase is added to 10 ml scintillation fluid, and mixed thoroughly by shaking.
The samples are then counted, 5 min per vial, in a scintillation counter.

[2] abbreviates: read-out: HSL inhibition (IC50).

For the molecule `COc1ccccc1OC(=O)NN1CCc2ccccc2C1` [Example 2, (3,4-Dihydro-1H-isoquinolin-2-yl)-carbamic acid 2-methoxy-phenyl Ester], on Lipoprotein lipase (LPL), the inhibition at 50 µM worked out at 2%. In test [1] (setting [2]), the IC50 was determined as 6400 nM.

In the case of `COc1ccc(OC(=O)NN2CCc3ccccc3C2)cc1` [Example 3, (3,4-Dihydro-1H-isoquinolin-2-yl)-carbamic acid 4-methoxy-phenyl Ester], on Lipoprotein lipase (LPL), the inhibition at 50 µM was 0%. The IC50 in test [1] (setting [2]) stood at 360 nM.

Regarding `COC(=O)c1ccc(OC(=O)NN2CCc3ccccc3C2)cc1` [Example 4, 4-(3,4-Dihydro-1H-isoquinolin-2-ylcarbamoyloxy)-benzoic Acid Methyl Ester], the inhibition at 50 µM at Lipoprotein lipase (LPL) is 20%. Also, the IC50 in test [1] (setting [2]) was 9900 nM.

As to `O=C(NN1CCc2ccccc2C1)Oc1ccc(Br)cc1` [Example 5, (3,4-Dihydro-1H-isoquinolin-2-yl)-carbamic acid 4-bromo-phenyl Ester], the inhibition at 50 µM on Lipoprotein lipase (LPL) was determined as 7%. In addition, the IC50 in test [1] (setting [2]) was 39 nM.

With `O=C(NN1CCc2ccccc2C1)Oc1ccc(F)cc1` [Example 7], on Lipoprotein lipase (LPL), the inhibition at 50 µM came out at 0%. Moreover, the IC50 in test [1] (setting [2]) is 460 nM.

For the molecule `Cc1ccc(OC(=O)NN2CCc3ccccc3C2)cc1` [Example 8, (3,4-Dihydro-1H-isoquinolin-2-yl)-carbamic Acid p-tolyl Ester], the inhibition at 50 µM on Lipoprotein lipase (LPL) is 1%. In test [1] (setting [2]), the IC50 came to 30 nM.

With `Cc1ccccc1OC(=O)NN1CCc2ccccc2C1` [Example 9, (3,4-Dihydro-1H-isoquinolin-2-yl)-carbamic Acid o-tolyl Ester], the inhibition at 50 µM at Lipoprotein lipase (LPL) was 7%. In addition, in test [1] (setting [2]), the IC50 stood at 1600 nM.

For `Cc1cccc(OC(=O)NN2CCc3ccccc3C2)c1` [Example 10, (3,4-Dihydro-1H-isoquinolin-2-yl)-carbamic Acid m-tolyl Ester], the inhibition at 50 µM on Lipoprotein lipase (LPL) came to 5%. Also, the IC50 in test [1] (setting [2]) was 670 nM.

With `O=C(NN1CCc2ccccc2C1)Oc1c(Cl)cccc1Cl` [Example 11, (3,4-Dihydro-1H-isoquinolin-2-yl)-carbamic Acid 2.6-dichloro-phenyl Ester], on Lipoprotein lipase (LPL), the inhibition at 50 µM was 7%. In test [1] (setting [2]), the IC50 is more than 10000 nM.

Regarding `O=C(NN1CCc2ccccc2C1)Oc1ccc(C(F)(F)F)cc1` [Example 13, (3,4-Dihydro-1H-isoquinolin-2-yl)-carbamic Acid 4-trifluoromethyl-phenyl Ester], at Lipoprotein lipase (LPL), the inhibition at 50 µM amounted to 3%. The IC50 in test [1] (setting [2]) is 45 nM.

`O=C(NN1CCc2ccccc2C1)Oc1ccccc1Br` [Example 14, (3,4-Dihydro-1H-isoquinolin-2-yl)-carbamic Acid 2-bromo-phenyl Ester]: the inhibition at 50 µM on Lipoprotein lipase (LPL) came out at 7%. In test [1] (setting [2]), the IC50 came to 800 nM.

Consider `CCC(=O)c1ccc(OC(=O)NN2CCc3ccccc3C2)cc1` [Example 24], for which, in test [1] (setting [2]), the IC50 is more than 10000 nM.

With `CC(=O)Nc1ccc(OC(=O)NN2CCc3ccccc3C2)cc1` [Example 25], the IC50 in test [1] (setting [2]) was more than 10000 nM.

On to `Cc1ccc(C(=O)c2ccc(OC(=O)NN3CCc4ccccc4C3)cc2)cc1` [Example 26], for which the IC50 in test [1] (setting [2]) was more than 10000 nM.

With `CN(C)CCc1ccc(OC(=O)NN2CCc3ccccc3C2)cc1` [Example 34], the IC50 in test [1] (setting [2]) is more than 10000 nM.

Regarding `O=C(NN1CCc2ccccc2C1)Oc1ccc(-c2ccccc2)cc1` [Example 36], the IC50 in test [1] (setting [2]) is more than 10000 nM.

On to `O=C(NN1CCc2ccccc2C1)Oc1ccc(C(=O)c2ccccc2)cc1` [Example 41], for which, in test [1] (setting [2]), the IC50 was more than 10000 nM.

Turning to `O=C(NN1CCc2ccccc2C1)Oc1ccc(C(=O)CCCCl)cc1` [Example 44], the IC50 in test [1] (setting [2]) is more than 10000 nM.

Take `CC(=O)c1ccc(OC(=O)NN2CCc3ccccc3C2)cc1` [Example 45]: the IC50 in test [1] (setting [2]) was more than 10000 nM.

For the molecule `O=C(NN1CCc2ccccc2C1)Oc1ccc(Cl)c(C(F)(F)F)c1` [Example 47], in test [1] (setting [2]), the IC50 is more than 10000 nM.

In the case of `O=C(NN1CCCCC1)Oc1ccc(Cl)cc1` [Example 48, Piperidin-1-yl-carbamic Acid 4-chloro-phenyl Ester], the midpoint of inhibition in test [1], the IC50, lay at 50 nM.

Turning to `O=C(NN1CCOCC1)Oc1ccc(Cl)cc1` [Example 49, Morpholin-4-yl-carbamic Acid 4-chloro-phenyl Ester], the IC50 in test [1] was 100 nM.

For `S=C(NN1CCc2ccccc2C1)Sc1ccccc1` [Example 50, (3,4-Dihydro-1H-isoquinolin-2-yl)-dithiocarbamic Acid Phenyl Ester], the IC50 in test [1] (setting [2]) is more than 10000 nM.
